Holding throughout (assay type): in vivo
The subject of experiment [1] is Aedes aegypti strain MONHEIM. Nature of the experiment: Aedes aegypti test (AEDSAE surface treatment & contact assay). The note with it: 24 hours after contact, read-out: efficacy (mortality); for mortality at 20 mg/m2: surface concentration 20 mg/m^2, 30 minutes exposure. The procedure: Aedes Aegypti Test (AEDSAE Surface Treatment & Contact Assay)
(§1) Solvent: Aceton+2000 ppm rapeseed oil methyl ester (RME)
(§2) In order to produce a sufficient, active ingredient containing solution it is necessary to solve the test compound in the solvent-mix (acetone at 2 mg/ml/RME 2000 ppm). This solution is pipetted onto a glazed tile and after evaporation of the acetone, adult mosquitoes of the species Aedes aegypti strain MONHEIM are placed onto the dried surface. The exposure time is 30 minutes. Mortality in percent (%) is determined 24 hours after contact of the insects to the treated surface. 100% mortality means that all tested insects are dead, whereas 0% means that no insect died.

For experiment [2], the system named is larvae of the banded cucumber beetle (Diabrotica balteata). Nature of the experiment: Diabrotica balteata spray test. Conditions: 168 h, 100 g/ha (=32 μg/well), after 7 days, wheat seeds, read-out: efficacy (seedlings grown like untreated, uninfected control). The procedure:
Diabrotica balteata—spray test
Solvent: 78.0 parts by weight of acetone
1.5 parts by weight of dimethylformamide
(§3) Emulsifier: alkylarylpolyglycol ether
To produce a suitable preparation of active compound, 1 part by weight of active compound is mixed with the stated amount of solvent, and the concentrate is diluted with water, containing an emulsifier concentration of 1000 ppm, to the desired concentration. Further test concentrations are prepared by dilution with emulsifier containing water.
Soaked wheat seeds (Triticum aestivum) are placed in a multiple well plate filled with agar and some water and are incubated for 1 day to germinate (5 seeds per well). The germinated wheat seeds are sprayed with a test solution containing the desired concentration of the active ingredient. Afterwards each unit is infected with 10-20 larvae of the banded cucumber beetle (Diabrotica balteata).
After 7 days efficacy in % is determined. 100% means all the seedlings have grown up like in the untreated, uninfected control; 0% means none of the seedlings have grown.

In experiment [3] the test system is Anopheles funestus strain FUMOZ-R. Nature of the experiment: Anopheles funestus test (ANPHFU surface treatment & contact assay). The note with it: surface concentration 20 mg/m^2, 30 minutes exposure, 24 hours after contact, read-out: efficacy (mortality). The procedure:
Anopheles funestus Test (ANPHFU Surface Treatment & Contact Assay)
as §1
as §2, with “Anopheles funestus” for “Aedes aegypti”, “FUMOZ-R (Hunt et al., Med. Vet. Entomol. 2005 September; 19(3): 271-275)” for “MONHEIM”

Experiment [4] deals with green peach aphid (Myzus persicae). Put plainly: Myzus persicae spray test. The note with it: foliar, 120 h, after 5 days, Chinese cabbage leaf disks. The procedure:
Myzus persicae—spray test
(§4) Solvent: 78.0 parts by weight acetone • 1.5 parts by weight dimethylformamide
as §3
(§5) To produce a suitable preparation of active compound, 1 part by weight of active compound is mixed with the stated amount of solvents and is diluted with water, containing an emulsifier concentration of 1000 ppm, to the desired concentration. Further test concentrations are prepared by dilution with emulsifier containing water.
Chinese cabbage (Brassica pekinensis) leaf disks infected with all instars of the green peach aphid (Myzus persicae), are sprayed with a preparation of the active ingredient of the desired concentration.
(§6) After 5 days mortality in % is determined. 100% means all aphids have been killed and 0% means none of the aphids have been killed.

Experiment [5] shares this test system. Put plainly: Myzus persicae oral test. The note with it: 120 h. As to the method:
Solvent: 100 parts by weight acetone
To produce a suitable preparation of active compound, 1 part by weight of active compound is mixed with the stated amount of solvent, and the concentrate is diluted with water to the desired concentration. 50 μL compound solution is filled in microtiter plates and 150 μL IPL41 insect medium (33%+15% sugar) is added to obtain a total volume of 200 μL per well. Afterwards the plates are sealed with parafilm through which a mixed population of the green peach aphid (Myzus persicae) can suck on the compound preparation.
as §6

In experiment [6] the test system is Musca domestica strain WHO-N. Nature of the experiment: Musca domestica test (MUSCDO surface treatment & contact assay). The note with it: 24 hours after contact, read-out: efficacy (mortality). The procedure:
Musca domestica Test (MUSCDO Surface Treatment & Contact Assay)
as §1
In order to produce a sufficient, active ingredient containing solution it is necessary to solve the test compound in the solvent-mix (acetone at 2 mg/ml/RME 2000 ppm). This solution is pipetted onto a glazed tile and after evaporation of the acetone, adult flies of the species Musca domestica strain WHO-N are placed onto the dried surface. The exposure time is 30 minutes. Mortality in percent (%) is determined 24 hours after contact of the insects to the treated surface. 100% mortality means that all tested insects are dead, whereas 0% means that no insect died.

Experiment [7] deals with fall armyworm larvae (Spodoptera frugiperda). Put plainly: Spodoptera frugiperda spray test. Conditions: in Zea mays, 168 h. The procedure:
Spodoptera frukiperda—Spray Test
as §4, §3, §5
Maize (Zea mays) leaf sections are sprayed with a preparation of the active ingredient of the desired concentration. Once dry, the leaf sections are infested with fall armyworm larvae (Spodoptera frugiperda).
After 7 days mortality in % is determined. 100% means all caterpillars have been killed and 0% means none of the caterpillars have been killed.

In experiment [8] the test system is Rhipicephalus microplus larvae (strain Parkhurst, resistant against synthetic pyrethroids). Put plainly: Rhipicephalus (Boophilus) microplus in-vitro contact test, larval cattle tick. The note with it: 5 μg/cm^2 (=500 g/ha), after 48 hours, read-out: efficacy (larvae dead or moribund). As to the method:
Rhipicephalus (Boophilus) Microplus—In-Vitro Contact Tests Larval Cattle Tick (Strain Parkhurst, Resistant Against Synthetic Pyrethroids)
(§7) 9 mg compound is solved in 1 mL acetone and diluted with acetone to the desired concentration. 250 μL of the test solution is filled in 25 mL glass test tubes and homogeneously distributed on the inner walls by rotation and tilting on a shaking device (2 h at 30 rpm). With a compound concentration of 900 ppm, an inner surface of 44.7 cm^2 and a homogeneous distribution, a dose of 5 μg/cm^2 is achieved.
After the solvent has evaporated, each test tube is filled with 20-50 cattle tick larvae (Rhipicephalus microplus), closed with a perforated lid and incubated in a horizontal position at 85% relative humidity and 27° C. in an incubator. After 48 hours efficacy is determined. The larvae are patted on the ground of the tubes and negative geotactic behaviour is recorded.
An efficacy of 100% means all larvae are dead or moribund; 0% means no larvae are dead or moribund.

The subject of experiment [9] is adult engorged female ticks (Rhipicephalus microplus). Nature of the experiment: Rhipicephalus (Boophilus) microplus injection test. The note with it: 168 h, after 7 days, read-out: efficacy (infertile eggs); for pest or weed control at 0.004 mg: 4 μg/animal. The procedure:
Rhipicephalus (Boophilus) microplus—Injection Test
(§8) Solvent: dimethyl sulfoxide
To produce a suitable preparation of active compound, 10 mg of active compound are dissolved in 0.5 mL solvent, and the concentrate is diluted with solvent to the desired concentration.
Five adult engorged female ticks (Rhipicephalus microplus) are injected with 1 μL compound solution into the abdomen. The ticks are transferred into replica plates and incubated in a climate chamber.
After 7 days egg deposition of fertile eggs is monitored. Eggs where fertility is not visible are stored in a climate chamber till hatching after about 42 days. An efficacy of 100% means all eggs are infertile; 0% means all eggs are fertile.

The subject of experiment [10] is adult brown dog ticks (Rhipicephalus sanguineus). Nature of the experiment: Rhipicephalus sanguineus in-vitro contact test with adult brown dog ticks. Conditions: 5 μg/cm^2 (=500 g/ha), after 48 hours, read-out: efficacy (ticks dead or moribund). As to the method: Rhipicephalus sanguineus—In-Vitro Contact Tests with Adult Brown Dog Ticks
as §7
After the solvent has evaporated, each test tube is filled with 5-10 adult brown dog ticks (Rhipicephalus sanguineus), closed with a perforated lid and incubated in a lying position at room temperature and relative humidity. After 48 hours efficacy is determined. The ticks are patted on the ground of the tubes and are incubated on a heating plate at 45-50° C. for at most 5 minutes. Immotile or uncoordinated moving ticks, which are not able to escape the heat by climbing upwards, are marked as dead or moribund.
An efficacy of 100% means all ticks are dead or moribund; 0% means no ticks are dead or moribund.

Experiment [11] relates to adult unfed cat fleas (Ctenocephalides felis). Nature of the experiment: Ctenocephalides felis oral test. The note with it: 48 h. As to the method:
Ctenocephalides felis—Oral Test
as §8
To produce a suitable preparation of active compound, 10 mg of active compound are dissolved in 0.5 ml solvent, and the concentrate is diluted with cattle blood to the desired concentration.
Approximately 20 adult unfed cat fleas (Ctenocephalides felis) are placed in flea chambers. The blood chamber, sealed with parafilm on the bottom, are filled with cattle blood supplied with compound solution and placed on the gauze covered top of the flea chamber, so that the fleas are able to suck the blood. The blood chamber is heated to 37° C. whereas the flea chamber is kept at room temperature.
After 2 days mortality in % is determined. 100% means all the fleas have been killed; 0% means none of the fleas have been killed.

In experiment [12] the test system is adult cat fleas (Ctenocephalides felis). Nature of the experiment: Ctenocephalides felis in-vitro contact test, adult cat flea. The note with it: after 48 hours, read-out: efficacy (fleas dead or moribund); for pest or weed control at 5 µg/cm2, 500 g/ha: 5 μg/cm^2 (=500 g/ha). As to the method: Ctenocephalides felis—In-Vitro Contact Tests Adult Cat Flea 9 mg compound is solved in 1 mL acetone and diluted with acetone to the desired concentration. 250 μL of the test solution is filled in 25 mL glass test tubes and homogeneously distributed on the inner walls by rotation and tilting on a shaking device (2 h at 30 rpm). With a compound concentration of 900 ppm, an inner surface of 44.7 cm^2 and a homogeneous distribution, a dose of 5 μg/cm^2 is achieved.
After the solvent has evaporated, each test tube is filled with 5-10 adult cat fleas (Ctenocephalidesfelis), closed with a perforated lid and incubated in a lying position at room temperature and relative humidity.
After 48 hours efficacy is determined. The fleas are patted on the ground of the tubes and are incubated on a heating plate at 45-50° C. for at most 5 minutes. Immotile or uncoordinated moving fleas, which are not able to escape the heat by climbing upwards, are marked as dead or moribund.
An efficacy of 100% means all fleas are dead or moribund; 0% means no fleas are dead or moribund.

Setting [13] is: surface concentration 4 mg/m^2, 30 minutes exposure.

Drawing on patent US20220386611A1, “NOVEL HETEROARYL-TRIAZOLE COMPOUNDS AS PESTICIDES” (Bayer Aktiengesellschaft, priority 2019, published 2022), this text covers mortality and pest or weed control for four molecules.

For the molecule `CC(NC(=O)c1cc(Cl)cc(OC(F)(F)F)c1)c1nc(Cl)nn1-c1ncccn1` (racemic) [Example I-001, 3-chloro-N-[1-(5-chloro-2-pyrimidin-2-yl-1,2,4-triazol-3-yl)ethyl]-5-(trifluoromethoxy)benzamide], the mortality at 4 mg/m2 in experiment [1] (setting [13]) and in experiment [6] (setting [13]) was 80 to 100% in each case. The mortality at 20 mg/m2 in [1] lay in the range of 80 to 100%; in experiment [3], 80 to 100%; in experiment [6] (surface concentration 20 mg/m^2, 30 minutes exposure), 80 to 100%. For the same molecule, the pest or weed control at 32 µg/disc, 100 g/ha in experiment [2] came out at 100%. The mortality at 100 g/ha was 90% in experiment [4] and 100% in experiment [7]. The mortality at 4 ppm in experiment [5] worked out at 100%.

For `CC(NC(=O)c1cc(Br)cc(C(F)(F)F)c1)c1nc(Br)nn1-c1ncccn1` (racemic) [Example I-009, 3-bromo-N-[1-(5-bromo-2-pyrimidin-2-yl-1,2,4-triazol-3-yl)ethyl]-5-(trifluoromethyl)benzamide], the pest or weed control at 5 µg/cm2 in experiment [8] was 100%. Further, the pest or weed control at 32 µg/disc, 100 g/ha in experiment [2] stood at 100%. Further, the mortality at 100 g/ha stood at 70% in [4] and 67% in [7]. The mortality at 4 ppm in [5] came out at 100%. Besides, the pest or weed control at 0.004 mg in experiment [9] worked out at 100%. For the same molecule, the pest or weed control at 5 µg/cm2, 500 g/ha in [10] stood at 100%; in [12], 80%. For the same molecule, the mortality at 100 ppm in experiment [11] came out at 100%.

`CC(NC(=O)c1cc(Cl)cc(C(F)(F)F)c1)c1nc(Br)nn1-c1ccc(Cl)cn1` (racemic) [Example I-018, N-[1-[5-bromo-2-(5-chloro-2-pyridyl)-1,2,4-triazol-3-yl]ethyl]-3-chloro-5-(trifluoromethyl)benzamide]: the pest or weed control at 5 µg/cm2 in [8] amounted to 80%. For the same molecule, the mortality at 20 mg/m2 in experiment [1] and in experiment [3] was 80 to 100% in each case. Moreover, the pest or weed control at 32 µg/disc, 100 g/ha in experiment [2] came out at 100%. In addition, the pest or weed control at 0.004 mg in experiment [9] is 80%. In experiment [9] (20 μg/animal), the pest or weed control at 0.02 mg stood at 100%. Also, in experiment [7], the mortality at 100 g/ha is 83%.

On to `CC(NC(=O)c1cc(Br)cc(OC(F)(F)F)c1)c1nc(I)nn1-c1ncccn1` (racemic) [Example I-020, 3-bromo-N-[1-(5-iodo-2-pyrimidin-2-yl-1,2,4-triazol-3-yl)ethyl]-5-(trifluoromethoxy)benzamide], for which the pest or weed control at 5 µg/cm2 in experiment [8] worked out at 100%. Besides, the pest or weed control at 32 µg/disc, 100 g/ha in experiment [2] was found to be 100%. The mortality at 100 g/ha in experiment [4] came out at 90%; in experiment [7], 100%. This molecule also had a mortality at 4 ppm in experiment [5] of 100%. The pest or weed control at 5 µg/cm2, 500 g/ha in experiment [10] and in experiment [12] was 100% each time. This molecule also had a mortality at 100 ppm in [11] of 100%. Further, the pest or weed control at 1 µg/cm2, 100 g/ha in experiment [12] (1 μg/cm^2 (=100 g/ha)) is 100%.

What is called mortality is the percentage killed.
